{"source": "patent US5011828A", "about": "“Immunostimulating guanine derivatives, compositions and methods” (priority 1988, dated 1991)", "key": {"[1]": {"test_system": "SJL splenocytes (irradiated CBA/CaJ splenocyte stimulators)", "experiment": "T cell proliferation in mixed leukocyte cultures, SJL splenocytes", "format": "cell-based, mouse", "conditions": "responder +", "text": "In evaluating the effect of a guanosine derivative on alloantigen-induced proliferation, it is imperative to minimize the simultaneous mitogenic response of B cells to contact with a guanosine derivative. Spleen cells from SJL mice (whose B cells are hyporesponsive to the mitogenic effect of a guanosine derivative, but not to its adjuvant activity) were used as responder cells in two studies. Those responder cells were stimulated with irradiated allogenic cells (from CBA/CaJ mice) in the presence of no added nucleoside, incremental amounts of a guanosine derivative of the invention, 7M8oGuo, or with another guanosine derivative, 8MGuo, used as a positive control.\n^1 Plus signs (+) are utilized to indicate the presence of the\nmaterial of the column heading in the culture medium, whereas minus signs\n(-) are utilized to show absence of such a material from the culture\n^3 Allogeneic cells used to costimulate proliferation, after exposure\nT Helper Cell Activation. 1.5×10^5 viable spleen cells from SJL mice or CBA/CaJ mouse thymocytes were cultured with or without an equal number of irradiated (2500 rads) spleen cells from CBA/CaJ or BDFl mice respectively, in 0.2 ml of culture medium in the presence of incremental concentrations of the exemplary 7,8-disubstituted guanine derivatives. The lymphocyte culture medium utilized was that described before, and was further supplemented with 2-mercaptoethanol to a final concentration of 50 uM. Thymocyte cultures also contained 10 percent (v/v) of a concanavalin A-conditioned rat spleen cell medium sold under the name Rat T Cell Monoclone by Collaborative Research. Following 90 hours of culture, one microCurie [^3 H]TdR per culture was admixed, and the resulting culture was maintained for a further six hour time period.\nThe cultures were harvested with a Brandel cell harvester (M24V, Biological Research and Development Laboratories, Rockville, Md.) onto glass fiber filter disks. Filter disks were transferred to plastic scintillation vials, covered with liquid scintillation cocktail, and counted in a Beckman LS5700 liquid scintillation counter."}, "[2]": {"test_system": "anti-TNP-BSA antibody titers in CBA/CaJ mice", "experiment": "In vivo anti-TNP-BSA antibody response (ELISA)", "parameters": "species or system mouse", "conditions": "i.p., 0.2 ml at 5 mg/ml, 37 days", "experimental": "FIG. 4 is a graph containing a number of plots that illustrate the in vivo kinetics of enhanced anti-trinitrophenyl bovine serum albumin (TNP-BSA) antibody responses elicited by contacting leukocytes in vivo with a composition containing 7-allyl-8-mercaptoguanosine (7a8MGuo). Here, the guanosine derivative (0.2 ml of 7a8MGuo at 5 mg/ml) was in a vehicle of 100 percent sesame oil (solid line) or 2 percent sesame oil in saline (dotted line) when introduced into the animal.\nThree groups of CBA/CaJ mice were utilized. Each group was immunized with the TNP-BSA conjugate. […]\nAntibody titers to TNP-BSA were determined over a period of 37 days using standard enzyme-linked immunosorbent assay (ELISA) procedures with TNP-BSA as antigen. […]\nCBA/CaJ mice were immunized intraperitonally (i.p.) using a conjugate (TNP-BSA) prepared by the reaction of 2,4,6-trinitrobenzene sulfonic acid (TNBS) and bovine serum albumin (BSA) in a 0.28 molar cacodylate buffer, at pH 6.9. […] Anti-TNP-BSA antibody secretion from each group was thereafter monitored over a period of 37 days by standard enzyme-linked immunosorbant assay (ELISA) techniques using TNP-BSA as antigen.\nInjections. […] Anti-TNP-BSA antibody titers were determined using standard techniques."}}}
{"compound": "C=CCn1c(=S)n([C@@H]2O[C@H](CO)[C@@H](O)[C@H]2O)c2nc(N)[nH]c(=O)c21", "note": "[7a8MGuo, 7-(2-Propenyl)-8-thioxoguanosine]", "values": [{"measurement": "[3H] TdR Uptake", "setting": "[1]; Study 1, stimulator +, 10^-5 M", "value": "67,500 ± 2900 counts per minute"}, {"measurement": "[3H] TdR Uptake", "setting": "[1]; Study 1, stimulator -, 10^-5 M", "value": "36,700 ± 2400 counts per minute"}, {"measurement": "[3H] TdR Uptake", "setting": "[1]; Study 2, stimulator +, 10^-5 M", "value": "36,400 ± 3800 counts per minute"}, {"measurement": "[3H] TdR Uptake", "setting": "[1]; Study 2, stimulator -", "value": "19,100 ± 1100 counts per minute"}, {"measurement": "anti-TNP-BSA antibody titer, ratio to control", "setting": "[2]; 2 percent sesame oil in saline vehicle", "value": "about 4 times"}, {"measurement": "anti-TNP-BSA antibody titer, ratio to control", "setting": "[2]; 100 percent sesame oil vehicle", "value": "about 5 times"}]}
